In ChEMBL document CHEMBL1201862, “PubChem BioAssay data set” (2004):
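Dose response: 5 concentrations. Exposure: 48 h. Format: 96-well plates. Endpoint: linear interpolation; highest concentration if not reached. Abbreviation: GI50, concentration required for 50% inhibition of growth.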 Activity calls are given as the source filed them. Rule as the data show it: active = GI50 up to about 1.1 µM and inactive = higher.

What was measured:
Experiment in all cases: NCI tumour cell line growth inhibition, 48 h
786-0 = test system: 786-0
CCRF-CEM = test system: CCRF-CEM
COLO 205 = test system: COLO 205
HCC 2998 = test system: HCC 2998
HOP-92 = test system: HOP-92
KM12 = test system: KM12
LOX IMVI = test system: LOX IMVI
MDA-MB-435 = test system: MDA-MB-435
MDA-N = test system: MDA-N
Malme-3M = test system: Malme-3M
NCI/ADR-RES = test system: NCI/ADR-RES
OVCAR-3 = test system: OVCAR-3
OVCAR-5 = test system: OVCAR-5
SF-268 = test system: SF-268
SNB-19 = test system: SNB-19
SW-620 = test system: SW-620
UACC-257 = test system: UACC-257
CAKI-1 = test system: CAKI-1

Measured: GI50

CCn1c(=O)c2nc(SC)sc2n(-c2ccccc2)c1=O
inactive: 786-0 > 100 µM | CCRF-CEM > 100 µM | COLO 205 > 100 µM | HCC 2998 > 100 µM | HOP-92 54.1 µM | KM12 > 100 µM | LOX IMVI > 100 µM | MDA-MB-435 > 100 µM | MDA-N > 100 µM | Malme-3M > 100 µM | NCI/ADR-RES > 100 µM | OVCAR-3 > 100 µM | OVCAR-5 > 100 µM | SF-268 > 100 µM | SNB-19 > 100 µM | SW-620 > 100 µM | UACC-257 > 100 µM

CC1(C)[C@@H](Cn2cnc3c(Cl)nc(N)nc32)CC[C@@]1(C)CO
inactive: 786-0 > 100 µM | CAKI-1 28.2 µM | CCRF-CEM 31.6 µM | COLO 205 51.5 µM | HCC 2998 22.5 µM | HOP-92 > 100 µM | KM12 > 100 µM | LOX IMVI 27.9 µM | MDA-MB-435 26.4 µM | MDA-N 32.4 µM | NCI/ADR-RES 83.4 µM | OVCAR-3 33 µM | OVCAR-5 > 100 µM | SF-268 20.8 µM | SNB-19 83.4 µM | SW-620 42.4 µM | UACC-257 30.4 µM

c1ccc2c(c1)nc1ccccn12
inactive: 786-0 > 100 µM | CCRF-CEM > 100 µM | COLO 205 > 100 µM | HCC 2998 > 100 µM | HOP-92 > 100 µM | KM12 > 100 µM | MDA-MB-435 > 100 µM | MDA-N > 100 µM | Malme-3M > 100 µM | NCI/ADR-RES > 100 µM | OVCAR-3 > 100 µM | OVCAR-5 > 100 µM | SF-268 > 100 µM | SNB-19 > 100 µM | SW-620 > 100 µM | UACC-257 > 100 µM

CN(NC(=O)c1ccco1)C1=NCCCCN1
inactive: 786-0 > 100 µM | CCRF-CEM > 100 µM | COLO 205 > 100 µM | HCC 2998 > 100 µM | HOP-92 > 100 µM | KM12 > 100 µM | LOX IMVI > 100 µM | MDA-MB-435 > 100 µM | MDA-N > 100 µM | Malme-3M > 100 µM | NCI/ADR-RES > 100 µM | OVCAR-3 > 100 µM | OVCAR-5 > 100 µM | SF-268 > 100 µM | SNB-19 > 100 µM | SW-620 > 100 µM | UACC-257 > 100 µM

Cc1cc(C)c2c(n1)S(=O)(=O)N(CCCN1CCN(c3cccc(Cl)c3)CC1)C(C(=O)c1ccccc1)=C2O
inactive: 786-0 19.5 µM | CAKI-1 12.9 µM | CCRF-CEM 25.9 µM | COLO 205 18.7 µM | HOP-92 25.8 µM | KM12 33.7 µM | LOX IMVI 6.01 µM | MDA-MB-435 27 µM | MDA-N 25.9 µM | Malme-3M 64.3 µM | NCI/ADR-RES 20.6 µM | OVCAR-3 22.8 µM | OVCAR-5 45 µM | SF-268 39 µM | SNB-19 30.2 µM | SW-620 31.8 µM | UACC-257 19.3 µM

N#CC1=C(N)OC2=C(CSc3ccccc32)C1c1ccc(Br)cc1 (stereo unspecified)
inactive: 786-0 7.83 µM | CAKI-1 4.49 µM | CCRF-CEM 2.72 µM | COLO 205 2.94 µM | HOP-92 6.78 µM | KM12 4.37 µM | LOX IMVI 2.6 µM | MDA-MB-435 2.6 µM | MDA-N 3.32 µM | Malme-3M 13.4 µM | NCI/ADR-RES 2.15 µM | OVCAR-3 5.57 µM | OVCAR-5 11.6 µM | SF-268 11.1 µM | SNB-19 17.7 µM | SW-620 5.22 µM | UACC-257 12.1 µM

COC(=O)c1c(OC(C)=O)ccc2c1c1c(n2C)C(=O)c2ccccc2C1=O
inactive: 786-0 25.5 µM | CAKI-1 20.7 µM | COLO 205 55.3 µM | HCC 2998 26.8 µM | HOP-92 1.34 µM | KM12 29.1 µM | MDA-MB-435 23.9 µM | MDA-N 19 µM | Malme-3M 23.9 µM | NCI/ADR-RES 33.9 µM | OVCAR-3 17.9 µM | OVCAR-5 34.3 µM | SF-268 24.4 µM | SNB-19 33.7 µM | UACC-257 13.1 µM
